Measurements taken from patent US9580451B2, “Sulfonic esters of metal oxides and methods of their use” (California Institute of Technology, priority 2013, dated 2017).

Assay: Relative fluorescence quantum yield measurement
Type: physicochemical
Conditions: degassed toluene, tetraphenylporphyrin as standard
Method: The Φem measurements were performed using degassed toluene solutions of 1,1-Al, 1-Ga, and tetraphenylporphyrin (as a standard). Samples were excited at λex=355 nm and the emission was observed from λem=500-800 nm. The standard tetraphenylporphyrin was excited at λex=514 nm and the emission was observed from λem=500-800 nm. Φem for tetraphenylporphyrin is 0.11.3 All relative fluorescence quantum yields were calculated based on the corresponding fluorescence spectra of the samples and the standard according to the equation: […]
where Φem(s) and Φem(x) are the relative fluorescence quantum yield of the standard and sample, respectively; As and Ax are the absorbance at the excitation wavelength for the standard and sample, respectively; Fs and Fx are the area under the corrected emission curve for the standard and sample, respectively; and ηs and ηx are the refractive index of the solvent used for the standard and sample, respectively.

Structure (SMILES): O=S(=O)(Cl)C1=Cc2nc1c(-c1c(F)c(F)c(F)c(F)c1F)c1ccc([nH]1)c(-c1c(F)c(F)c(F)c(F)c1F)c1ccc([nH]1)c(-c1c(F)c(F)c(F)c(F)c1F)c1cc(S(=O)(=O)Cl)c2[nH]1 [compound 1, 2,17-bischlorosulfonato-5,10,15-tris(pentafluorophenyl)corrole]
- φem, relative emission quantum yield: 0.094
